We go through 21 compounds from patent publication US20230339970A1, “CASEIN KINASE 1 DELTA MODULATORS” (priority 2020, published 2023).

One experiment has as its target T1, human CSNK1D (Homo sapiens, UniProt P48730).
T1 construct: expressed in transfected cells
Nature of the experiment: Whole Cell nBRET CSNK1D Binding Assay. The settings on record: living CHO cells stably expressing human CSNK1D tagged with nanoluciferase; NanoBret tracer 130 nM; 2 hours at 37 C.

For experiment [1], the target named is T2, human recombinant GST cleaved CSNK1D (Homo sapiens, UniProt P48730).
T2 construct: GST (cleaved yes); purchased University of Dundee clone DU 19064
T2 sequence (P48730 whole entry): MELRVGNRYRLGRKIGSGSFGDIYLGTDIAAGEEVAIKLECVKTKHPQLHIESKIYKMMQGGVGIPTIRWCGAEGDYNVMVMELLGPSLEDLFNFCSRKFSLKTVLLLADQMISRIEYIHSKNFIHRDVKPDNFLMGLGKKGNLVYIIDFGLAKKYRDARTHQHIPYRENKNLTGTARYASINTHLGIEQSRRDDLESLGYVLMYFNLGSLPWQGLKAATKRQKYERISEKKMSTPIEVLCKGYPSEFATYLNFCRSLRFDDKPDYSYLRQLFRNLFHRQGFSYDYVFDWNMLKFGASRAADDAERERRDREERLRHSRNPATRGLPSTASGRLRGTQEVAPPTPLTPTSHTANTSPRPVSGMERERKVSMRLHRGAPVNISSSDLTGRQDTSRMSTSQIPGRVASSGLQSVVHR
Nature of the experiment: Purified Enzyme Assay (ADP-Glo CSNK1D Kinase Assay). The format is biochemical. As to conditions: 2 nM CSNK1D; peptide substrate 150 μM; ATP 20 μM; 45 minutes at room temperature. Put shortly:
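GST-cleaved human recombinant CSNK1D phosphorylates peptide PLSRTL-pS-VASLPGL with ATP; compounds added in dose-response, 45 min at room temperature. ADP formed measured by ADP-Glo luminescence and converted to percent activity.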

T1 sequence (P48730 whole entry): as above

A word on the IC50: it is the concentration needed to halve the response being measured. Regarding `Fc1ccc(-c2nn3c(c2-c2ccnc4[nH]ncc24)COC(C(F)(F)F)C3)nc1` (stereo not drawn) [Example 102, 2-(5-Fluoropyridin-2-yl)-3-(1H-pyrazolo[3,4-b]pyridin-4-yl)-6-(trifluoromethyl)-6,7-dihydro-4H-pyrazolo[5,1-c][1,4]oxazine], the IC50 on human CSNK1D came out at 0.844 µM; in experiment [1], 0.039 µM.
Consider `Fc1ccc(-c2nn3c(c2-c2ccnc4[nH]ncc24)COCC32CC2)cc1` [Example 106, 2′-(4-Fluorophenyl)-3′-(1H-pyrazolo[3,4-b]pyridin-4-yl)-4′H,6′H-spiro[cyclopropane-1,7′-pyrazolo[5,1-c][1,4]oxazine]], for which the figures for the IC50 (at human CSNK1D; in experiment [1]) were 0.137 µM and 0.009 µM, respectively.
Consider `Cc1cc(-c2c(-c3ccc(F)cc3)nn3c2COCC32CC2)c2cn[nH]c2n1` [Example 107, 2′-(4-Fluorophenyl)-3′-(6-methyl-1H-pyrazolo[3,4-b]pyridin-4-yl)-4′H,6′H-spiro[cyclopropane-1,7-pyrazolo[5,1-c][1,4]oxazine]], for which the IC50 on human CSNK1D was determined as 0.072 µM; in experiment [1] it was 0.009 µM.
Take `CC1(C)COCc2c(-c3ccnc4[nH]ncc34)c(-c3ccc(F)cc3)nn21` [Example 120, 2-(4-Fluorophenyl)-7,7-dimethyl-3-(1H-pyrazolo[3,4-b]pyridin-4-yl)-4,6-dihydropyrazolo[5,1-c][1,4]oxazine]: the values for the IC50 (at human CSNK1D; in experiment [1]) were 0.201 µM and 0.013 µM, respectively.
Regarding `Cc1cc(-c2c(-c3ccc(F)cc3)nn3c2COCC3(C)C)c2cn[nH]c2n1` [Example 121, 2-(4-Fluorophenyl)-7,7-dimethyl-3-(6-methyl-1H-pyrazolo[3,4-b]pyridin-4-yl)-4,6-dihydropyrazolo[5,1-c][1,4]oxazine], the IC50 was 0.233 µM on human CSNK1D and 0.014 µM in experiment [1].
For `CC1(C)COCc2c(-c3ccnc4[nH]ncc34)c(-c3ccc(F)cn3)nn21` [Example 122, 2-(5-Fluoro-2-pyridyl)-7,7-dimethyl-3-(1H-pyrazolo[3,4-b]pyridin-4-yl)-4,6-dihydropyrazolo[5,1-c][1,4]oxazine] the same measures were 3.41 µM and 0.12 µM.
As for `Cc1cc(-c2c(-c3ccc(F)cn3)nn3c2COCC3(C)C)c2cn[nH]c2n1` [Example 123, 2-(5-Fluoro-2-pyridyl)-7,7-dimethyl-3-(6-methyl-1H-pyrazolo[3,4-b]pyridin-4-yl)-4,6-dihydropyrazolo[5,1-c][1,4]oxazine], the half-inhibitory concentration (IC50) at human CSNK1D came to 2.35 µM; in experiment [1], 0.111 µM.
As for `CC1(C)Cn2nc(-c3cscn3)c(-c3ccnc4[nH]ncc34)c2CO1` [Example 124, 6,6-Dimethyl-3-(1H-pyrazolo[3,4-b]pyridin-4-yl)-2-(thiazol-4-yl)-6,7-dihydro-4H-pyrazolo[5,1-c][1,4]oxazine], the half-inhibitory concentration (IC50) at human CSNK1D was found to be 0.343 µM; in experiment [1], 0.017 µM.
With `Cc1cc(-c2c(-c3cscn3)nn3c2COC(C)(C)C3)c2cn[nH]c2n1` [Example 125, 6,6-Dimethyl-3-(6-methyl-1H-pyrazolo[3,4-b]pyridin-4-yl)-2-(thiazol-4-yl)-6,7-dihydro-4H-pyrazolo[5,1-c][1,4]oxazine], the IC50 on human CSNK1D was 0.27 µM; in experiment [1], 0.012 µM.
Consider `CC1(C)Cn2nc(-c3cnco3)c(-c3ccnc4[nH]ncc34)c2CO1` [Example 126, 6,6-Dimethyl-2-(oxazol-5-yl)-3-(1H-pyrazolo[3,4-b]pyridin-4-yl)-6,7-dihydro-4H-pyrazolo[5,1-c][1,4]oxazine], for which the IC50 on human CSNK1D turned out to be 0.827 µM; in experiment [1], 0.021 µM.
Regarding `Cn1cnc(-c2nn3c(c2-c2ccnc4[nH]ncc24)COC(C)(C)C3)c1` [Example 127, 6,6-Dimethyl-2-(1-methyl-1H-imidazol-4-yl)-3-(1H-pyrazolo[3,4-b]pyridin-4-yl)-6,7-dihydro-4H-pyrazolo[5,1-c][1,4]oxazine], the IC50 is 3.25 µM on human CSNK1D and 0.051 µM in experiment [1].
Consider `CC1(C)Cn2nc(-c3ccc(F)cn3)c(-c3ccncc3)c2CO1` [Example 128, 2-(5-Fluoropyridin-2-yl)-6,6-dimethyl-3-(pyridin-4-yl)-6,7-dihydro-4H-pyrazolo[5,1-c][1,4]oxazine], for which the figures for the IC50 (on human CSNK1D; in experiment [1]) were 0.244 µM and 0.013 µM, respectively.
For `CC1(C)Cn2nc(-c3ccc(F)cn3)c(-c3ccnc(C(F)F)c3)c2CO1` [Example 129, 3-(2-(Difluoromethyl)pyridin-4-yl)-2-(5-fluoropyridin-2-yl)-6,6-dimethyl-6,7-dihydro-4H-pyrazolo[5,1-c][1,4]oxazine] the same measures were 0.44 µM and 0.036 µM.
Consider `COc1cnccc1-c1c(-c2ccc(F)cn2)nn2c1COC(C)(C)C2` [Example 130, 2-(5-Fluoropyridin-2-yl)-3-(3-methoxypyridin-4-yl)-6,6-dimethyl-6,7-dihydro-4H-pyrazolo[5,1-c][1,4]oxazine], for which the IC50 at human CSNK1D stood at 0.624 µM; in experiment [1], 0.031 µM.
For `CCC(=O)Nc1cc(-c2c(-c3ccc(F)cn3)nn3c2COC(C)(C)C3)ccn1` [Example 131, N-(4-(2-(5-Fluoropyridin-2-yl)-6,6-dimethyl-6,7-dihydro-4H-pyrazolo[5,1-c][1,4]oxazin-3-yl)pyridin-2-yl)propionamide] the same measures were 0.016 µM and 0.003 µM.
As for `CC(C)C(=O)Nc1cc(-c2c(-c3ccc(F)cn3)nn3c2COC(C)(C)C3)ccn1` [Example 132, N-(4-(2-(5-Fluoropyridin-2-yl)-6,6-dimethyl-6,7-dihydro-4H-pyrazolo[5,1-c][1,4]oxazin-3-yl)pyridin-2-yl)isobutyramide], the IC50 was determined as 0.011 µM at human CSNK1D and 0.003 µM in experiment [1].
Consider `CC1(C)Cn2nc(-c3ccc(F)cn3)c(-c3ccnc(NC(=O)CC(F)(F)F)c3)c2CO1` [Example 133, 3,3,3-Trifluoro-N-(4-(2-(5-fluoropyridin-2-yl)-6,6-dimethyl-6,7-dihydro-4H-pyrazolo[5,1-c][1,4]oxazin-3-yl)pyridin-2-yl)propenamide], for which the values for the IC50 (on human CSNK1D; in experiment [1]) were 0.008 µM and 0.002 µM, respectively.
As to `CC1(C)Cn2nc(-c3ccc(F)cn3)c(-c3ccnc(NC(=O)C4CC4)c3)c2CO1` [Example 134, N-(4-(2-(5-Fluoropyridin-2-yl)-6,6-dimethyl-6,7-dihydro-4H-pyrazolo[5,1-c][1,4]oxazin-3-yl)pyridin-2-yl)cyclopropanecarboxamide], the IC50 on human CSNK1D came out at 0.007 µM; in experiment [1], 0.001 µM.
For `CC1(C)Cn2nc(-c3ccc(F)cn3)c(-c3ccnc(NC(=O)C4CC4(F)F)c3)c2CO1` (stereo not drawn) [Example 135, 2,2-Difluoro-N-(4-(2-(5-fluoropyridin-2-yl)-6,6-dimethyl-6,7-dihydro-4H-pyrazolo[5,1-c][1,4]oxazin-3-yl)pyridin-2-yl)cyclopropane-1-carboxamide] the same measures were 0.006 µM and 0.003 µM.
Turning to `CC1(C)Cn2nc(-c3ccc(F)cn3)c(-c3ccnc(NC(=O)c4ccccc4)c3)c2CO1` [Example 136, N-(4-(2-(5-Fluoropyridin-2-yl)-6,6-dimethyl-6,7-dihydro-4H-pyrazolo[5,1-c][1,4]oxazin-3-yl)pyridin-2-yl)benzamide], the IC50 at human CSNK1D is 0.006 µM; in experiment [1] it was 0.002 µM.
As to `CC1(C)Cn2nc(-c3ccc(F)cn3)c(-c3ccnc4ccsc34)c2CO1` [Example 137, 2-(5-Fluoropyridin-2-yl)-6,6-dimethyl-3-(thieno[3,2-b]pyridin-7-yl)-6,7-dihydro-4H-pyrazolo[5,1-c][1,4]oxazine], the values for the IC50 (at human CSNK1D; in experiment [1]) were 1.33 µM and 0.054 µM, respectively.
